Test system: mouse lung cancer 3LL
Test: Combined use with CPA in subcutaneously mouse lung cancer 3LL-transplanted model (Example 35)
Format: in vivo
Details: CPA 2 mg/mouse/day i.p. days 4-7; anti-FSTL1 antibody 5 mg/kg i.p. days 8 and 11

O=P1(N(CCCl)CCCl)NCCCO1 (stereo not shown) [CPA, cyclophosphamide]
subcutaneous tumor growth / antitumor effect: strongly suppressed subcutaneous tumor growth

— patent publication US20180021429A1, “ANTICANCER AGENTS OR ANTIMETASTATIC AGENTS USING FSTL1 AND COMBINATION DRUG THEREOF” (PHARMA FOODS INTERNATIONAL CO., LTD., priority 2015, published 2018)
